Measured values: article PMC9014415, “Repositioning of a Diaminothiazole Series Confirmed to Target the Cyclin-Dependent Kinase CRK12 for Use in the Treatment of African Animal Trypanosomiasis” (Journal of Medicinal Chemistry, 2022)
Where “and” joins values, the source holds several entries; their conditions need not be identical. Equal values may be shown once. Entries after “also recorded” stand apart in the source; their conditions may differ.

Columns and labels:
T. congolense [1] = assay: NMRI mouse efficacy model, T. congolense; format: in vivo, Trypanosoma congolense; details: for Efficacy at 10 mg/kg SC for 4 days, T. congo / Efficacy, T. congo: mice; for Efficacy at 10 mg/kg SC for 4 days, T. congo: 10 mg/kg SC once daily for 4 days
Method: (§1) 3. In vivo efficacy studies
(§2) The T. congolense (IL3000) and T. vivax (ILRAD V34) cell lines7, 8, both originating from Kenya, were used in the following in vivo mouse studies. For studies in cattle, either Trypanosoma congolense (savannah) KONT 2/133, 224) or T. vivax STIB 719 was used.
(§3) 3.1 Mouse efficacy studies for T. brucei brucei.
(§4) Mouse efficacy studies for T. brucei brucei were carried out as previously detailed.9 3.2 NMRI mouse efficacy studies for T. congolense and T. vivax.
(§5) Mouse models of infections were carried out using standardized protocols. Briefly, 1 mL samples of cryopreserved T. congolense, or T. vivax-infected blood harvested directly from an infected mouse, were diluted with Hanks Balanced Salt Solution plus 20 mM glucose (HBSS+G) to 5 x 10^4 trypomastigotes/mL (5 x 105 for T. vivax). Female mice (NMRI) were inoculated IP on day 0 with 0.2 mL/animal (equivalent to ~ 1 x 104 T. congolense or ~ 1 x 105 T. vivax per animal). The level of parasitaemia was inspected microscopically on day 3 using tail blood smears, counting 20 high powered fields (× 400 magnification). For untreated or treated animals whose tail smears exceeded 50 parasites/field, precise parasite levels were established using a Neubauer haemocytometer; mice with a parasite burden over 1 x 108 were promptly and humanely terminated (T. congolense only, from our experience the mice will not survive for a further 24 h). Alternatively, in the case of T. vivax-infected mice the immune system will bring the infection to a sub-lethal level (below limit of detection) […]
(§6) followed by cycles of high and low parasitaemia. Eventually mice infected with T. vivax succumb to the infection between 30 – 60 days post-infection.
(§7) Suppression of parasitaemia - mouse
(§8) On day 3 post-infection, animals were randomly allocated to groups, with 3 mice/group. Infected animals were dosed with one of the following: diaminazene diaceturate IP. – 40 mg/kg once only as a control (early-stage trypanocide used to clear the parasites in the systemic circulation and in tissues other than CNS), compound 1 (SC) at 3, 10, 30 and 50 mg free base/kg twice and once daily for 4 d or a single dose, or compound 2 (SC) at 3 and 10 mg free base /kg once daily for 4 d, once daily for 2 d or a single dose, one group of 3 mice acted as an untreated control group. The dose solutions were prepared daily, using 5% DMSO: 40% PEG400: 55% MilliQ H2O for test compounds and 10% DMSO: 90% peanut oil for standard drugs. Alternatively, compound 2 was delivered for 48 h via SC implanted ALZET osmotic pumps (6, 12, 25 and 50 mg free base/mL, vehicle: 50% DMSO […]
(§9) and 50% deionized water).
(§10) Response to treatment was determined by monitoring parasitaemia twice a week until day 21.
(§11) After day 21, the mice were checked once a week until 63 d post-treatment. Mice surviving to the end of the experiment, and with blood smears clear of parasites, were considered cured. […]
(§12) The parasites were obtained from a donor calf. This isolate is resistant to diminazene (20 mg/kg) and isometamidium (1 mg/kg) in cattle, and diminazene (7 mg/kg) and isometamidium (>1 mg/kg) in mice. Calves were parasitaemic by study day 6. Calves (n = 5) were treated with compound 1 (5 mg/kg, SC, twice 12 h apart) on study

T. congolense [2] = assay: In vitro drug sensitivity assay, T. congolense (IL3000); format: cell-based; details: Trypanosoma congolense; IL3000 strain
Method: 1.2 In vitro drug sensitivity assays - Trypanosoma congolense
EC50 values for test compounds against T. congolense (IL3000 strain) were conducted as previously described3 with minor modifications.4 Briefly, trypanosome cell densities were determined using a CASY cell counter (Schärfe) and diluted to a seeding density of 2 x 105 trypanosomes/mL. BSF trypanosomes were grown in HMI-9 (IMDM) media supplemented with 20% (v/v) bovine serum.1 Test compounds were resuspended to a final concentration of 10 mg/mL in DMSO. Assays plates were incubated at 34 °C with 5 % CO2, for a total of 69 h, prior to addition of 10 µL of Resazurin (12.5 mg in 100 mL phosphate buffered saline, Aldrich) into each well, followed by a further 3 h incubation. Absorbance was read using a SpectraMax (Gemini XS) fluorescence reader at an excitation wavelength of 536 nm and an emission wavelength of 588 nm. EC50 values were determined using SOFTmax Pro 5.2 analysis software. All experiments were conducted with technical duplicates, and at least three biological replicates. […]

T. vivax = assay: NMRI mouse efficacy model, T. vivax; format: in vivo, Trypanosoma vivax; details: for Efficacy at 10 mg/kg SC for 4 days, T. vivax / Efficacy, T. vivax: mice; for Efficacy at 10 mg/kg SC for 4 days, T. vivax: 10 mg/kg SC once daily for 4 days
Method: as §1, §2, §3, §4, §5, §6, §7, §8, §9, §10, §11, §12

L6 cells = assay: Cytotoxicity assay, rat skeletal myoblasts (L6); format: cell-based
Method: 1.4 Cytotoxicity assays – Rat skeletal myoblasts (L6)
The cytotoxicity of test compounds was evaluated using a rat skeletal myoblast (L6) cell line, as previously described3, but with minor modifications. Cells were grown in RPMI media supplemented with 10% (v/v) fetal calf serum. L6 cells at a seeding density of 2 x 10^4 cells/mL were incubated in microtiter plates overnight at 37 °C and 5 % CO2 until adherent. The following day, test compounds were added to the plates (3-fold serial dilutions), prior to incubation for 69 h. Following incubation, 10 µL of Resazurin (12.5 mg in 100 mL phosphate buffered saline, Aldrich) was added to each well and the plates were incubated for a further 3 h. The plates were read using a SpectraMax (Gemini XS) fluorescence reader at an excitation wavelength of 536 nm and an emission wavelength of 588 nm. EC50 values were determined using SOFTmax Pro 5.2 analysis software. All experiments were conducted as technical replicates, with at least three biological replicates. […]

[3] = Bovine liver microsome stability; format: in vitro ADME; details: intrinsic clearance
Method: 2.2 Microsomal stability studies […]
(b) Bovine liver microsome stability. Test compounds (0.5 µM) were incubated with 0.5 mg/mL bovine liver microsomes (Xenotech LLC TM) in 50 mM potassium phosphate buffer, pH7.4 and the reaction initiated upon addition of excess NADPH (8 mg/mL in 50 mM potassium phosphate buffer, pH7.4).
Aliquots (50 µL) of the incubation mixture were taken at time zero, 3, 6, 9, 15 and 30 min then mixed with acetonitrile (100 µL) to stop the reaction. An internal standard was added to all samples, prior to centrifugation (10 min, 1,665 g, RT) to sediment precipitated protein. Reaction plates were then sealed prior to UPLCMSMS analysis using a Quattro Premier XE (Waters corporation, USA).
XLfit (IDBS, UK) was used to calculate the exponential decay and consequently the rate constant (k) from the ratio of peak area of test compound to internal standard at each timepoint. The rate of intrinsic clearance (CLi) of each test compound was then calculated using the following […]
CLi(mL/min/g liver) = k x V x microsomal protein yield
Where V (mL/mg protein) is the incubation volume/ mg protein added and microsomal protein yield is taken as 52.5 mg protein/ g of liver. Verapamil (0.5 µM) was used as a positive control to confirm acceptable assay performance. […]

CNCc1cc(F)c(C(=O)c2sc(N[C@H]3CC[C@H](NS(=O)(=O)CC(C)C)CC3)nc2N)c(F)c1.Cl [Compound 8, N-((trans)-4-((4-Amino-5-(2,6-difluoro-4-((methylamino)methyl)benzoylthiazol-2-yl)amino)cyclohexyl))-2-methylpropane-1-sulfonamide Hydrochloride]
Efficacy at 10 mg/kg SC for 4 days, T. congo (T. congolense [1]): Full cure (3/3)
EC50 (T. congolense [2]): 1.3 nM
Efficacy at 10 mg/kg SC for 4 days, T. vivax (T. vivax): Full cure (3/3)
EC50 (L6 cells): 15000 nM
Bovine Microsome Cli (BLM: bovine microsomal clearance) [3]: 0.5 mL/min/g

CC(C)CS(=O)(=O)N[C@H]1CC[C@H](Nc2nc(N)c(C(=O)c3c(F)cccc3F)s2)CC1 [Compound 1, N-((trans)-4-((4-Amino-5-(2,6-difluorobenzoyl)thiazol-2-yl)amino)cyclohexyl)-2-methylpropane-1-sulfonamide]
Acute T. congolense efficacy in mice (T. congolense [1]; 3 mg/kg bid SC for 4 days): Partial cure (2/3)
Acute T. congolense efficacy in mice (T. congolense [1]; 10 mg/kg bid SC for 4 days): Full cure
T. congolense efficacy in mice (T. congolense [1]; 10 mg/kg once daily for 4 days, SC): sterile cure
Acute T. congolense efficacy in mice (T. congolense [1]; 30 mg/kg, single dose, SC): Partial cure: (2/3)
Acute T. congolense efficacy in mice (T. congolense [1]; 50 mg/kg single dose, SC): sterile cure; also recorded: Full cure
EC50 (T. congolense [2]): 18 nM
Acute T. vivax efficacy in mice (T. vivax; 3 mg/kg bid SC for 4 days): Full cure
T. vivax efficacy in mice (T. vivax; 3 mg/kg once daily for 4 days, SC): sterile cure
Acute T. vivax efficacy in mice (T. vivax; 10 mg/kg bid SC for 4 days): Full cure
Acute T. vivax efficacy in mice (T. vivax; 10 mg/kg, single dose, SC): Partial cure (1/3)
Acute T. vivax efficacy in mice (T. vivax; 30 mg/kg, single dose, SC): sterile cure; also recorded: Full cure
Bovine Microsome Cli (BLM: bovine microsomal clearance) [3]: <0.5 / 0.5 mL/min/g and <0.5 mL/min/g

CC(C)CS(=O)(=O)N[C@H]1CC[C@H](Nc2nc(N)c(C(=O)c3c(Cl)cccc3Cl)s2)CC1 [Compound 10, N-((trans)-4-((4-Amino-5-(2,6-dichlorobenzoyl)thiazol-2-yl)amino)cyclohexyl)-2-methylpropane-1-sulfonamide]
Efficacy, T. congo (T. congolense [1]; 3 mg/kg (head: SC for 4 days)): Full cure (3/3) 3 mg/kg
EC50 (T. congolense [2]): 0.4 nM
Efficacy, T. vivax (T. vivax; 3 mg/kg for 4 days): Full cure (3/3) 3 mg/kg
EC50 (L6 cells): 3400 nM
Bovine Microsome Cli (BLM: bovine microsomal clearance) [3]: 1.6 mL/min/g

CC(C)CS(=O)(=O)N[C@H]1CC[C@H](Nc2nc(N)c(C(=O)c3c(F)cc(CN(C)C)cc3F)s2)CC1 [Compound 2, N-(trans)-[4-[[4-Amino-5-[4-(dimethylaminomethyl)-2,6-difluoro-benzoyl]thiazol-2-yl]amino]cyclohexyl]-2-methyl-propane-1-sulfonamide]
Efficacy in T. congolense-infected mice, implanted ALZET osmotic pumps (T. congolense [1]; SC pump delivery, all dose levels): cured; also recorded: full cure
Efficacy, T. congo (T. congolense [1]; 3 mg/kg (head: SC for 4 days)): Partial cure (2/3)
Efficacy at 10 mg/kg SC for 4 days, T. congo (T. congolense [1]; 10 mg/kg): fully curative; also recorded: Full cure; also recorded: Partial cure (1/3)
Efficacy, T. congo (T. congolense [1]; 10 mg/kg once daily for 2 days): Partial cure (2/3)
Efficacy, T. congo (T. congolense [1]; 10 mg/kg, regimen not restated, listed after the 3 mg/kg result): Full cure
EC50 (T. congolense [2]): 3.2 nM
Efficacy, T. vivax (T. vivax; 3 mg/kg for 4 days, 3 mg/kg): Full cure (3/3) 3 and 10 mg/kg for 4 days 10 mg/kg for 2 days; also recorded: Full cure (3/3); 3 and 10 mg/kg for 4 days, 10 mg/kg for 2 days
Efficacy at 10 mg/kg SC for 4 days, T. vivax (T. vivax; 10 mg/kg): fully curative; also recorded: Full cure (3/3) 3 and 10 mg/kg for 4 days 10 mg/kg for 2 days; also recorded: Full cure (3/3); 3 and 10 mg/kg for 4 days, 10 mg/kg for 2 days
Efficacy, T. vivax (T. vivax; 10 mg/kg for 2 days, 10 mg/kg): Full cure (3/3) 3 and 10 mg/kg for 4 days 10 mg/kg for 2 days; also recorded: Full cure (3/3); 3 and 10 mg/kg for 4 days, 10 mg/kg for 2 days
EC50 (L6 cells): 3600 nM
Bovine Microsome Cli (BLM: bovine microsomal clearance) [3]: 1.1 mL/min/g
